The record followed here is ChEMBL document CHEMBL1158231, “Antiviral sulfated steroids from the ophiuroid Ophioplocus januarii” (J Nat Prod, 1996).

As a reminder, the inhibition is the relative decrease from the control value, in per cent.

For data set [1], the system named is Human alphaherpesvirus 1. In words: Antiviral activity against HSV1 F infected african green monkey Vero cells assessed as reduction of virus plaque formation at 40 ug/mL. Type of data set: functional. Also on record: scale not given: the % may be the effect or the level left.
Data set [2] has as its system Human alphaherpesvirus 1. Kind of data set: Antiviral activity against HSV1 F infected african green monkey Vero cells assessed as reduction of virus plaque formation at 20 ug/mL. Type of data set: functional. Also on record: scale not given: the % may be the effect or the level left.
Data set [3] has as its system Human alphaherpesvirus 1. In words: Antiviral activity against HSV1 F infected african green monkey Vero cells assessed as reduction of virus plaque formation at 10 ug/mL. Type of data set: functional. Also on record: scale not given: the % may be the effect or the level left.
For data set [4], the system named is Human alphaherpesvirus 1. Kind of data set: Antiviral activity against HSV1 F infected african green monkey Vero cells assessed as reduction of virus plaque formation at 5 ug/mL. It is filed as functional. Also on record: scale not given: the % may be the effect or the level left.
Data set [5] relates to Poliovirus 3. In words: Antiviral activity against human poliovirus 3 Sabin infected african green monkey Vero cells assessed as reduction of virus plaque formation at 40 ug/mL. Type of data set: functional. Also on record: scale not given: the % may be the effect or the level left.
Data set [6] deals with Poliovirus 3. Kind of data set: Antiviral activity against human poliovirus 3 Sabin infected african green monkey Vero cells assessed as reduction of virus plaque formation at 20 ug/mL. Type of data set: functional. Also on record: scale not given: the % may be the effect or the level left.
In data set [7] the test system is Poliovirus 3. Kind of data set: Antiviral activity against human poliovirus 3 Sabin infected african green monkey Vero cells assessed as reduction of virus plaque formation at 10 ug/mL. It is filed as functional. Further details: scale not given: the % may be the effect or the level left.
Data set [8] has as its system Poliovirus 3. Kind of data set: Antiviral activity against human poliovirus 3 Sabin infected african green monkey Vero cells assessed as reduction of virus plaque formation at 5 ug/mL. Type of data set: functional. Also on record: scale not given: the % may be the effect or the level left.
The subject of data set [9] is Junin virus. In words: Antiviral activity against Junin virus IV 4454 infected african green monkey Vero cells assessed as reduction of virus plaque formation at 40 ug/mL. It is filed as functional, Mammarenavirus juninense. Also on record: scale not given: the % may be the effect or the level left.
The subject of data set [10] is Junin virus. In words: Antiviral activity against Junin virus IV 4454 infected african green monkey Vero cells assessed as reduction of virus plaque formation at 20 ug/mL. It is filed as functional, Mammarenavirus juninense. Also on record: scale not given: the % may be the effect or the level left.
Data set [11] deals with Junin virus. In words: Antiviral activity against Junin virus IV 4454 infected african green monkey Vero cells assessed as reduction of virus plaque formation at 10 ug/mL. It is filed as functional, Mammarenavirus juninense. Further details: scale not given: the % may be the effect or the level left.
The subject of data set [12] is Junin virus. In words: Antiviral activity against Junin virus IV 4454 infected african green monkey Vero cells assessed as reduction of virus plaque formation at 5 ug/mL. It is filed as functional, Mammarenavirus juninense. Further details: scale not given: the % may be the effect or the level left.
Data set [13] relates to Respiratory syncytial virus. In words: Antiviral activity against RSV Long infected human Hep2 cells assessed as inhibition of viral-induced cytopathic effect at 40 ug/mL. It is filed as functional. To be noted: HEp-2. Background: Damage to the host cells serves as the signal in cytopathic effect assays.
The test system of data set [14] is Respiratory syncytial virus. In words: Antiviral activity against RSV Long infected human Hep2 cells assessed as inhibition of viral-induced cytopathic effect at 20 ug/mL. The settings on record: HEp-2. It is filed as functional.
Data set [15] relates to Respiratory syncytial virus. In words: Antiviral activity against RSV Long infected human Hep2 cells assessed as inhibition of viral-induced cytopathic effect at 10 ug/mL. Type of data set: functional. To be noted: HEp-2.
Data set [16] concerns Respiratory syncytial virus. In words: Antiviral activity against RSV Long infected human Hep2 cells assessed as inhibition of viral-induced cytopathic effect at 5 ug/mL. Type of data set: functional. The settings on record: HEp-2.
The nature of data set [17]: Cytotoxicity against african green monkey Vero cells assessed as cell viability at 40 ug/mL after 7 days by trypan blue exclusion method. Type of data set: cell-based. The settings on record: chlorocebus sabaeus, read-out: Activity.
Data set [18] deals with Vero. In words: Cytotoxicity against african green monkey Vero cells at 20 ug/mL after 7 days by trypan blue exclusion method. It is filed as cell-based. The settings on record: chlorocebus sabaeus, 168 h.
Data set [19] deals with Vero. Kind of data set: Cytotoxicity against african green monkey Vero cells at 10 ug/mL after 7 days by trypan blue exclusion method. The settings on record: chlorocebus sabaeus, 168 h. Type of data set: cell-based.
In data set [20] the test system is Vero. Kind of data set: Cytotoxicity against african green monkey Vero cells at 5 ug/mL after 7 days by trypan blue exclusion method. Type of data set: cell-based. To be noted: chlorocebus sabaeus, 168 h.

As for `C=C(CC[C@@H](COS(=O)(=O)[O-])[C@H]1CC[C@H]2[C@@H]3CC[C@@H]4[C@H](O)[C@H](OS(=O)(=O)[O-])CC[C@]4(C)[C@H]3[C@@H](O)C[C@]12C)C(C)C.[Na+].[Na+]`, the Activity was found to be 36% in the data set on Human alphaherpesvirus 1 [1]; 20% with Human alphaherpesvirus 1 [2]; 11% in the data set on Human alphaherpesvirus 1 [3]; 3% with Human alphaherpesvirus 1 [4]; 31% in the data set with Poliovirus 3 [5]; 16% in the data set with Poliovirus 3 [6]. For the same compound, the Activity in the data set on Poliovirus 3 [7] came to 0%; in the data set with Poliovirus 3 [8] it was 0%; in the data set on Junin virus [9] it was 54%; in the data set with Junin virus [10], 38%; with Junin virus [11] it was 33%; with Junin virus [12], 19%. Also, the Activity result in the data set on Vero [18], with Vero [19] and in the data set on Vero [20] was “Non-toxic” throughout. In addition, the inhibition at 40 µg/mL in data set [13] amounted to 50%. Further, in [14], the inhibition at 20 µg/mL came out at 25%. The inhibition at 10 µg/mL in [15] stood at 25%. The inhibition at 5 µg/mL in data set [16] turned out to be 0%. Moreover, in data set [17], the viability at 168 h, 40 ug/mL turned out to be 100%.
For the compound `CC(C)/C=C/[C@@H](COS(=O)(=O)[O-])[C@H]1CC[C@H]2[C@@H]3CC[C@@H]4[C@H](O)[C@H](OS(=O)(=O)[O-])CC[C@]4(C)[C@H]3[C@@H](O)C[C@]12C.[Na+].[Na+]`, the Activity was 36% in the data set with Human alphaherpesvirus 1 [1]; 12% with Human alphaherpesvirus 1 [2]; 0% in the data set on Human alphaherpesvirus 1 [3]; 0% in the data set on Human alphaherpesvirus 1 [4]; 65% in the data set on Poliovirus 3 [5]; 37% with Poliovirus 3 [6]. Besides, the Activity is recorded as 8% in the data set on Poliovirus 3 [7]; 0% in the data set on Poliovirus 3 [8]; 37% with Junin virus [9]; 29% in the data set on Junin virus [10]; 21% with Junin virus [11]; 10% in the data set with Junin virus [12]. The Activity result with Vero [18], with Vero [19] and in the data set with Vero [20] was “Non-toxic” each time. In data set [13], the inhibition at 40 µg/mL came to 75%. The inhibition at 20 µg/mL in [14] was found to be 50%. In addition, the inhibition at 10 µg/mL in data set [15] amounted to 0%. Further, in data set [16], the inhibition at 5 µg/mL was 0%. In addition, in data set [17], the viability at 168 h, 40 ug/mL turned out to be 100%.
Take `CC(C)C/C=C/[C@@H](COS(=O)(=O)[O-])[C@H]1CC[C@H]2[C@@H]3CC[C@@H]4[C@H](O)[C@H](OS(=O)(=O)[O-])CC[C@]4(C)[C@H]3[C@@H](O)C[C@]12C.[Na+].[Na+]`: the Activity was determined as 39% in the data set on Human alphaherpesvirus 1 [1]; 14% in the data set with Human alphaherpesvirus 1 [2]; 0% with Human alphaherpesvirus 1 [3]; 0% in the data set on Human alphaherpesvirus 1 [4]; 68% in the data set on Poliovirus 3 [5]; 35% in the data set with Poliovirus 3 [6]. The Activity was determined as 0% in the data set on Poliovirus 3 [7]; 0% with Poliovirus 3 [8]; 47% in the data set with Junin virus [9]; 36% in the data set with Junin virus [10]; 31% in the data set on Junin virus [11]; 15% in the data set on Junin virus [12]. The Activity result with Vero [18], in the data set with Vero [19] and in the data set with Vero [20] was “Non-toxic” in each case. Moreover, the inhibition at 40 µg/mL in data set [13] is 75%. Moreover, the inhibition at 20 µg/mL in [14] came out at 50%. Further, the inhibition at 10 µg/mL in [15] stood at 25%. Besides, the inhibition at 5 µg/mL in data set [16] amounted to 0%. For the same compound, the viability at 168 h, 40 ug/mL in [17] was found to be 100%.
As to `CC(C)CCC[C@@H](COS(=O)(=O)[O-])[C@H]1CC[C@H]2[C@@H]3CC[C@@H]4[C@H](O)[C@H](OS(=O)(=O)[O-])CC[C@]4(C)[C@H]3[C@@H](O)C[C@]12C.[Na+].[Na+]`, the Activity with Human alphaherpesvirus 1 [1] is 35%; in the data set on Human alphaherpesvirus 1 [2] it was 8%; with Human alphaherpesvirus 1 [3] it was 7%; in the data set with Human alphaherpesvirus 1 [4], 2%; in the data set with Poliovirus 3 [5], 30%; in the data set with Poliovirus 3 [6], 24%. Moreover, the Activity in the data set on Poliovirus 3 [7] was 0%; in the data set with Poliovirus 3 [8], 0%; with Junin virus [9], 33%; with Junin virus [10], 28%; in the data set with Junin virus [11] it was 26%; with Junin virus [12], 24%. Besides, the Activity result in the data set on Vero [18], in the data set on Vero [19] and with Vero [20] was “Non-toxic” in each case. For the same compound, the inhibition at 40 µg/mL in data set [13] turned out to be 25%. Also, the inhibition at 20 µg/mL in data set [14] came to 25%. In addition, the inhibition at 10 µg/mL in [15] stood at 0%. Further, in [16], the inhibition at 5 µg/mL came out at 0%. Further, the viability at 168 h, 40 ug/mL in data set [17] was found to be 100%.
